From US20030166653A1, “Novel form of (r)-n-[5-methyl-8-(4-methylpiperazin-1-yl)-1,2,3,4-tetrahydro-2-naphthyl]-4-morpholinobenzamide” (priority 2003, published 2003)

Experiments:
Format in all cases: physicochemical
[1] = Stability of bulk drug substance (HPLC purity) in daylight and at 90° C.; conditions: for HPLC Purity (100% - related substances): bulk
Description: The stability of [5-Methyl-8-(4-methylpiperazin-1-yl)-1,2,3,4-tetrahydro-2-naphtyl]-4-morpholinobenzamide(=“Base” in tables below) and (R)-N-[5-methyl-8-(4-methylpiperazin-1-yl)-1,2,3,4-tetrahydro-2-naphtyl]-4-morpholinobenzamide monohydrobromide Form A (=“Form A” in tables below), as bulk drug substance and in solutions at different pH levels after exposure to daylight and at elevated temperatures, has been studied. The bulk substances are very stable, both in daylight and at 90° C. There are no significant differences between the HPLC purity of [5-Methyl-8-(4-methylpiperazin-1-yl)-1,2,3,4-tetrahydro-2-naphtyl]-4-morpholinobenzamide (=Base) and (R)-N-[5-methyl-8-(4-methylpiperazin-1-yl)-1,2,3,4-tetrahydro-2-naphtyl]-4-morpholinobenzamide monohydrobromide Form A (=Form A) at the tested conditions.

[2] = Solubility in water by HPLC-analysis
[3] = Stability of solution in 0.1 mM HCl, pH 4.1, HPLC assay
Text: (§1) The stability of [5-Methyl-8-(4-methylpiperazin-1-yl)-1,2,3,4-tetrahydro-2-naphtyl]-4-morpholinobenzamide(=“Base” in tables below) and (R)-N-[5-methyl-8-(4-methylpiperazin-1-yl)-1,2,3,4-tetrahydro-2-naphtyl]-4-morpholinobenzamide monohydrobromide Form A (=“Form A” in tables below), as bulk drug substance and in solutions at different pH levels after exposure to daylight and at elevated temperatures, has been studied. Three solutions were made from each batch of drug substance. One solution in pure water, one in 0.1 mM HCl (pH 4.1) and one in 0.1 M HCl (pH 1.1). The content of [5-Methyl-8-(4-methylpiperazin-1-yl)-1,2,3,4-tetrahydro-2-naphtyl]-4-morpholinobenzamide (=Base) was determined by HPLC, all results are calculated as the base.

[4] = Stability in water solutions (pH not adjusted), HPLC assay
Text: as §1

[5] = Water sorption by dynamic vapour sorption (DVS)
[6] = Stability of solution in 0.1 M HCl, pH 1.1, HPLC assay
Text: as §1

[7] = daylight RT, 14 days, % of start
[8] = daylight RT, 23 days, % of start

## Br.Cc1ccc(N2CCN(C)CC2)c2c1CC[C@@H](NC(=O)c1ccc(N3CCOCC3)cc1)C2 [Form A, (R)-N-[5-methyl-8-(4-methylpiperazin-1-yl)-1,2,3,4-tetrahydro-2-naphtyl]-4-morpholinobenzamide monohydrobromide]
[1]; 90° C., 2 days
  HPLC Purity (100% - related substances): 99.6%
[1]; 90° C., 8 days
  HPLC Purity (100% - related substances): 99.6%
[1]; 90° C., 14 days
  HPLC Purity (100% - related substances): 99.5%
[1]; 90° C., 21 days
  HPLC Purity (100% - related substances): 99.6%
[1]; 90° C., 30 days
  HPLC Purity (100% - related substances): 99.4%
[1]; 90° C., Start
  HPLC Purity (100% - related substances): 99.7%
[1]; daylight, RT, 8 days
  HPLC Purity (100% - related substances): 99.6%
[1]; daylight, RT, 14 days
  HPLC Purity (100% - related substances): 99.5%
[1]; daylight, RT, 21 days
  HPLC Purity (100% - related substances): 99.5%
[1]; daylight, RT, 30 days
  HPLC Purity (100% - related substances): 99.5%
[1]; daylight, RT, Start
  HPLC Purity (100% - related substances): 99.7%
[1]; in daylight and at 90° C.
  stability of bulk substance in words: very stable
[2]
  solubility in water in words: satisfactory
[2]; as the free base by HPLC-analysis
  solubility in water: 6400 µg/mL
[3]; 5° C., 8 days, % of start
  Solution in 0.1 mM HCl, pH 4.1, assay: 100%
[3]; 5° C., 14 days, % of start
  Solution in 0.1 mM HCl, pH 4.1, assay: 100%
[3]; 5° C., 23 days, % of start
  Solution in 0.1 mM HCl, pH 4.1, assay: 100%
[3]; 5° C., Start
  Solution in 0.1 mM HCl, pH 4.1, assay: 0.0490 mg base/ml
[3]; 5° C., Start, % of start
  Solution in 0.1 mM HCl, pH 4.1, assay: (100%)
[3]; 60° C., 2 days, % of start
  Solution in 0.1 mM HCl, pH 4.1, assay: 97%
[3]; 60° C., 8 days, % of start
  Solution in 0.1 mM HCl, pH 4.1, assay: 93%
[3]; 60° C., 14 days, % of start
  Solution in 0.1 mM HCl, pH 4.1, assay: 90%
[3]; 60° C., 23 days, % of start
  Solution in 0.1 mM HCl, pH 4.1, assay: 81%
[3]; 60° C., Start
  Solution in 0.1 mM HCl, pH 4.1, assay: 0.0490 mg base/ml
[3]; 60° C., Start, % of start
  Solution in 0.1 mM HCl, pH 4.1, assay: (100%)
[3]; Dark RT, 8 days, % of start
  Solution in 0.1 mM HCl, pH 4.1, assay: 99%
[3]; Dark RT, 14 days, % of start
  Solution in 0.1 mM HCl, pH 4.1, assay: 99%
[3]; Dark RT, 23 days, % of start
  Solution in 0.1 mM HCl, pH 4.1, assay: 98%
[3]; Dark RT, Start
  Solution in 0.1 mM HCl, pH 4.1, assay: 0.0490 mg base/ml
[3]; Dark RT, Start, % of start
  Solution in 0.1 mM HCl, pH 4.1, assay: (100%)
[3]; [7]
  Solution in 0.1 mM HCl, pH 4.1, assay: 99%
[3]; [8]
  Solution in 0.1 mM HCl, pH 4.1, assay: 97%
[3]; daylight RT, Start
  Solution in 0.1 mM HCl, pH 4.1, assay: 0.0490 mg base/ml
[3]; daylight RT, Start, % of start
  Solution in 0.1 mM HCl, pH 4.1, assay: (100%)
[3]; pH 4.1, except at 60° C.
  stability in solution in words: good
[4]; 5° C., 8 days, % of start
  Stability in water solutions, assay: 101%
[4]; 5° C., 14 days, % of start
  Stability in water solutions, assay: 100%
[4]; 5° C., 23 days, % of start
  Stability in water solutions, assay: 99%
[4]; 5° C., Start
  Stability in water solutions, assay: 0.0248 mg base/ml
[4]; 5° C., Start, % of start
  Stability in water solutions, assay: (100%)
[4]; 60° C., 2 days, % of start
  Stability in water solutions, assay: 84%
[4]; 60° C., 8 days, % of start
  Stability in water solutions, assay: 81%
[4]; 60° C., 14 days, % of start
  Stability in water solutions, assay: 76%
[4]; 60° C., 23 days, % of start
  Stability in water solutions, assay: 82%
[4]; 60° C., Start
  Stability in water solutions, assay: 0.0248 mg base/ml
[4]; 60° C., Start, % of start
  Stability in water solutions, assay: (100%)
[4]; 60° C., pH not adjusted
  stability in pure water solution, comparison in words: less stable than the Base
[4]; Dark RT, 8 days, % of start
  Stability in water solutions, assay: 99%
[4]; Dark RT, 14 days, % of start
  Stability in water solutions, assay: 99%
[4]; Dark RT, 23 days, % of start
  Stability in water solutions, assay: 97%
[4]; Dark RT, Start
  Stability in water solutions, assay: 0.0248 mg base/ml
[4]; Dark RT, Start, % of start
  Stability in water solutions, assay: (100%)
[4]; daylight RT, 8 days, % of start
  Stability in water solutions, assay: 100%
[4]; [7]
  Stability in water solutions, assay: 101%
[4]; [8]
  Stability in water solutions, assay: 100%
[4]; daylight RT, Start
  Stability in water solutions, assay: 0.0248 mg base/ml
[4]; daylight RT, Start, % of start
  Stability in water solutions, assay: (100%)
[5]; 80% RH and 25° C.
  water sorbed as measured by dynamic vapour sorption (DVS): 0,8%
[5]; solid state characterization, monohydrobromide
  hygroscopicity / water uptake in words: non-hygroscopic
[6]; 5° C., 8 days, % of start
  Solution in 0.1 M HCl, pH 1.1, assay: 100%
[6]; 5° C., 14 days, % of start
  Solution in 0.1 M HCl, pH 1.1, assay: 100%
[6]; 5° C., 23 days, % of start
  Solution in 0.1 M HCl, pH 1.1, assay: 98%
[6]; 5° C., Start
  Solution in 0.1 M HCl, pH 1.1, assay: 0.504 mg base/ml
[6]; 5° C., Start, % of start
  Solution in 0.1 M HCl, pH 1.1, assay: (100%)
[6]; 60° C., 2 days, % of start
  Solution in 0.1 M HCl, pH 1.1, assay: 100%
[6]; 60° C., 8 days, % of start
  Solution in 0.1 M HCl, pH 1.1, assay: 97%
[6]; 60° C., 14 days, % of start
  Solution in 0.1 M HCl, pH 1.1, assay: 95%
[6]; 60° C., 23 days, % of start
  Solution in 0.1 M HCl, pH 1.1, assay: 88%
[6]; 60° C., Start
  Solution in 0.1 M HCl, pH 1.1, assay: 0.504 mg base/ml
[6]; 60° C., Start, % of start
  Solution in 0.1 M HCl, pH 1.1, assay: (100%)
[6]; Dark RT, 8 days, % of start
  Solution in 0.1 M HCl, pH 1.1, assay: 101%
[6]; Dark RT, 14 days, % of start
  Solution in 0.1 M HCl, pH 1.1, assay: 99%
[6]; Dark RT, 23 days, % of start
  Solution in 0.1 M HCl, pH 1.1, assay: 98%
[6]; Dark RT, Start
  Solution in 0.1 M HCl, pH 1.1, assay: 0.504 mg base/ml
[6]; Dark RT, Start, % of start
  Solution in 0.1 M HCl, pH 1.1, assay: (100%)
[6]; [7]
  Solution in 0.1 M HCl, pH 1.1, assay: 100%
[6]; [8]
  Solution in 0.1 M HCl, pH 1.1, assay: 98%
[6]; daylight RT, Start
  Solution in 0.1 M HCl, pH 1.1, assay: 0.504 mg base/ml
[6]; daylight RT, Start, % of start
  Solution in 0.1 M HCl, pH 1.1, assay: (100%)
[6]; pH 1.1, except at 60° C.
  stability in solution in words: good
